Measurements published in patent US20230303635A1, “DIAGNOSTIC METHODS AND COMPOSITIONS” (THE REGENTS OF THE UNIVERSITY OF CALIFORNIA, priority 2020, published 2023).
Where two headings read alike, the source gives them in different places.

B1: L7H: single histidine graft L7H on downhill folding protein gpW (protein, UniProt P68660 1-68, looked up, variant L7H)
Head completion protein: MTRQEEHAAARAALHDLMTGKRVATVQKDGRRVEFTATSVSDLKKYIAELEVQTGMTQRRRGPAGFYV

Key:
[1] = molecular target: receptor binding domain (RBD) of the SARS-CoV-2 spike protein (Severe acute respiratory syndrome coronavirus 2, UniProt P0DTC2); details: cited from earlier work
[2] = Fluorescence spectroscopy of gpW FRET constructs upon pH titration
Description: Accordingly, the fluorescence integration was employed on this variant. Specifically, an extra cysteine was added at the N-terminal (N-ter), e.g., position 1, and the second cysteine was introduced near the C-terminal (C-ter) by replacing the methionine at position 56. These mutations allow us to chemically label the L7H with a FRET-pair to monitor the end-to-end distance of L7H (L7H-FRET). Another FRET-construct was also designed to measure the distance change between the beta-hairpin and the helix-1. […] In this regard, two cysteines were placed on the M18H-F35H variant by adding one cysteine at the N-ter (position 1) and replacing an aspartate (position 29) with cysteine. […] In both constructs, Alexa-488 maleimide and Alexa-594 maleimide are used as the FRET pair as they have many advantageous features. […]
Proteins samples were prepared at different pH by adding the labeled proteins 20 mM citrate buffer for experiments in the 3-6 pH range, phosphate buffer pH 7, and Tris-HCl buffer for the 8-9 pH range. […] Fluorescence emission spectra were recorded between 630 nm and 740 nm by exciting the ATTO 655 at 620 nm or between 490 nm and 720 nm by exciting the Alexa 488 at 480 nm. The pH titration on L7H-helix was triplicated, and L7H-Cter was replicated five times to calculate the standard deviation due to the concentration dependence of the PET fluorescence technique.

Molecule | Kd ([1]; read-out: binding affinity (KD) to SARS-CoV-2 S protein) [nM] | Kd ([1]; read-out: binding affinity (Kd) to SARS-CoV-2 spike protein RBD) [nM] | distance change as a function of pH [2]
GSGSGSTIEEQAKTFLDKANCEAEDLAYQSSLAS [ACE-2 α-helix] | 1000 | 50 | 
B1 |  |  | less than 1 nm
